Laboratory results taken from ChEMBL document CHEMBL1201862, “PubChem BioAssay data set” (2004).
The source made the active and inactive calls.

Columns and labels:
Fatty acid synthase [1] = target: T1, Fatty acid synthase (Homo sapiens, UniProt P49327); test: FAS thioesterase domain inhibitors, dose response, biochemical, kinetic fluorescence intensity (AID 624326); assay type: functional;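 note: rate of fluorescence rise from hydrolysis of a fluorogenic O-methyl fluorescein ester substrate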
Fatty acid synthase [2] = target: T1, Fatty acid synthase; test: FAS thioesterase domain inhibitors, dose response, biochemical, endpoint fluorescence intensity, uHTS hits (AID 624327); assay type: functional;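 note: fluorescence from hydrolysis of an O-methyl fluorescein acyl ester substrate by the enzyme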
[3] = target: Eukaryotic translation initiation factor 4E (Mus musculus, UniProt P63073); test: eIF4E–eIF4G protein interaction inhibitors, dose response, biochemical, TR-FRET (AID 855); assay type: functional;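 note: potency for disrupting eIF4E binding to eIF4GI seen as loss of FRET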
Eukaryotic translation initiation factor 4E, sequence (P63073 whole entry, the tested form may be a part): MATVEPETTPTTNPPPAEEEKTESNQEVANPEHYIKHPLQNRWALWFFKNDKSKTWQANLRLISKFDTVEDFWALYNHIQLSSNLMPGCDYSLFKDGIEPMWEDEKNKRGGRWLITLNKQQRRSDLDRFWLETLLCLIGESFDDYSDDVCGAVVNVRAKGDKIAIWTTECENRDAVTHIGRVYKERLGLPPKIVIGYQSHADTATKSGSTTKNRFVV

[4] = ZM109 Env clade C HIV-1 fusion inhibitors, dose response, HeLa effector, CEM target cells, luciferase, cherry-pick (AID 652058); assay type: functional, cell-based
[5] = intracellular Trypanosoma cruzi inhibitors in host cells – cell-based, plate reader, cherry-pick samples, set 3, dose response (AID 651818); assay type: functional;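 note: compounds incubated with infected cells for about four days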
[6] = target: Nuclear receptor subfamily 5 group A member 2 (Homo sapiens, UniProt O00482); assay type: functional, cell-based;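 note: HEK293T cells transfected with LRH-1 and a StAR promoter luciferase reporter; potency for inhibitors that lower LRH-1 driven reporter light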
Nuclear receptor subfamily 5 group A member 2, sequence (O00482 whole entry): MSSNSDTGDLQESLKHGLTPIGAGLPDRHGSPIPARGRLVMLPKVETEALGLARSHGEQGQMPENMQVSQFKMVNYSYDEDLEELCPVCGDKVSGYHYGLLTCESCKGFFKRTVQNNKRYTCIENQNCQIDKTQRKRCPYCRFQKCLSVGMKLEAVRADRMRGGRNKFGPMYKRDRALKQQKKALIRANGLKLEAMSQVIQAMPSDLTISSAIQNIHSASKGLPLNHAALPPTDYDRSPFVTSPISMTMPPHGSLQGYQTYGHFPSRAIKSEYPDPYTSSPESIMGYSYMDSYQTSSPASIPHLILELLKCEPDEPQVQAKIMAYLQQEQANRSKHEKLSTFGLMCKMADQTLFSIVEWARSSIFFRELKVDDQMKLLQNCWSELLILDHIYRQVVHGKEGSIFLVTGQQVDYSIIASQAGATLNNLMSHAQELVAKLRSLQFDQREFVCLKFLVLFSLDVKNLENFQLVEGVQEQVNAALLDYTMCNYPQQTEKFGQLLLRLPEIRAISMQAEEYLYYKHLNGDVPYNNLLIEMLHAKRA

Steroidogenic factor 1 = Steroidogenic factor 1 (Homo sapiens, UniProt Q13285); test: Counterscreen for inverse agonists of the liver receptor homolog-1 (LRH-1; NR5A2): Luminescence-based cell-based high throughput dose response assay to identify inverse agonists of the Steroidogenic Factor 1 Nuclear Receptor (SF1; NR5A1).; assay type: functional
Steroidogenic factor 1, sequence (Q13285 whole entry): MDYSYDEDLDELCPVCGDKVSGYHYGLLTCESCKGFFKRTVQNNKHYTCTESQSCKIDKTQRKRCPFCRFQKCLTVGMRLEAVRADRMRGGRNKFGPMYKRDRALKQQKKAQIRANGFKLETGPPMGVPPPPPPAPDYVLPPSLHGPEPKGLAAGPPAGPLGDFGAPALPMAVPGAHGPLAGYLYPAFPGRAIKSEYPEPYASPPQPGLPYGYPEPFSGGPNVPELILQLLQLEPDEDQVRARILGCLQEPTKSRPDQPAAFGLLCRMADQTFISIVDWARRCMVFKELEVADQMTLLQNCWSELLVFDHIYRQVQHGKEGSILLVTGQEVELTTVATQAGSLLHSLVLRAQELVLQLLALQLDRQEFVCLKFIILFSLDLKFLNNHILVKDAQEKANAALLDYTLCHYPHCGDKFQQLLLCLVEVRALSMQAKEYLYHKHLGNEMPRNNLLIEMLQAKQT

[7] = StAR promoter reporter inhibition counter-screen, dose response, counter-screen for LRH-1 inverse agonist project, cell-based, luminescence, luciferase reporter (AID 651969); assay type: functional
Large T antigen = Large T antigen (Simian virus 40, UniProt P03070); assay type: functional, Betapolyomavirus macacae;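 note: Confirmatory-stage PubChem screen for compounds that inhibit SV40 T antigen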
Large T antigen, sequence (P03070 whole entry): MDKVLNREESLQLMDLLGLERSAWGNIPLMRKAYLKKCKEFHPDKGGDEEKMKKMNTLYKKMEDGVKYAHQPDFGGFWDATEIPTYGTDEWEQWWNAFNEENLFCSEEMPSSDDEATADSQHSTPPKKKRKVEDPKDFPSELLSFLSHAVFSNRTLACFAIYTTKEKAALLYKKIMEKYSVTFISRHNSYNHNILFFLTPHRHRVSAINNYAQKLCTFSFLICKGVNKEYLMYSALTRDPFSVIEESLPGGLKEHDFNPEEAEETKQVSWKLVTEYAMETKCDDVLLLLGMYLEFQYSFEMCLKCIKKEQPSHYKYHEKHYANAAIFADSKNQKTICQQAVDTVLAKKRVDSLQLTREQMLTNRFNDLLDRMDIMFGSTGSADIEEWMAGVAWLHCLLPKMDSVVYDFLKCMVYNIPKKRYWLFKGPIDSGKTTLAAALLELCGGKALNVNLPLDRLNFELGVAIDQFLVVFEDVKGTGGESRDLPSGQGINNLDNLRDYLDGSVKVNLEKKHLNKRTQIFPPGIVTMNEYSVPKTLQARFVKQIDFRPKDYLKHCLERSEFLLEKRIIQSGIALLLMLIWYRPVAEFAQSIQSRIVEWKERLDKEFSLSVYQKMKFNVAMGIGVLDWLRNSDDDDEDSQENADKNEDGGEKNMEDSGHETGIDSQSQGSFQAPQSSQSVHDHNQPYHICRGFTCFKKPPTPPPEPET

[8] = target: T2, Zinc finger protein mex-5 (Caenorhabditis elegans, UniProt Q9XUB2); test: MEX-5/TCR-2 RNA interaction inhibitors, dose response, biochemical, C. elegans, fluorescence polarization (AID 1960)
T2 sequence (Q9XUB2 whole entry): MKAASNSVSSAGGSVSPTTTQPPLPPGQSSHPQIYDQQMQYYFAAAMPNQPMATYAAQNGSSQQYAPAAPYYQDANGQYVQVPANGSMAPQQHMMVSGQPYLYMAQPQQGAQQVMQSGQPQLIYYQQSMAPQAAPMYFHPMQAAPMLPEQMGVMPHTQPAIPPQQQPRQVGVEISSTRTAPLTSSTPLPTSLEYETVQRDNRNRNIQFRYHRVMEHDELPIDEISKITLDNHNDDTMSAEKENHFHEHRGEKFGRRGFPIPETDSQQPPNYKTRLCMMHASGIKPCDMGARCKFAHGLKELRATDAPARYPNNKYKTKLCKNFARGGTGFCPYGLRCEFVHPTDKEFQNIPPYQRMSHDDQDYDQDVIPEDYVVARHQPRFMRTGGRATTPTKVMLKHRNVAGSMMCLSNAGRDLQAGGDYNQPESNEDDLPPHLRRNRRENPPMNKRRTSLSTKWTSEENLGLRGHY

[9] = target: T3, RNA-binding protein pos-1 (Caenorhabditis elegans, UniProt G5EF15); test: inhibitors of POS-1/mex-3 RNA binding, dose response, biochemical, fluorescence polarization (AID 1964);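 note: purified POS-1 fused to maltose binding protein made in E. coli; potency of compounds blocking POS-1 binding to fluorescent RNA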
T3 sequence (G5EF15 whole entry): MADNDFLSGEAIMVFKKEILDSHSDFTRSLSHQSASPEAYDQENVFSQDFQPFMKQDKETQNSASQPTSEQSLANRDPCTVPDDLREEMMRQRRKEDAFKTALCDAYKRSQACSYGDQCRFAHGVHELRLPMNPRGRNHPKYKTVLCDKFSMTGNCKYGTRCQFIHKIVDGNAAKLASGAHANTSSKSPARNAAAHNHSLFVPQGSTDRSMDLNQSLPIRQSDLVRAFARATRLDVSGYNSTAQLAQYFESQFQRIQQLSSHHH

[10] = target: Glucose-6-phosphate 1-dehydrogenase (Homo sapiens, UniProt P11413); test: human G6PD enzyme inhibitors, dose response, selectivity assay for P. falciparum G6PD inhibitor project, biochemical, fluorescence (AID 504792); assay type: functional
Glucose-6-phosphate 1-dehydrogenase, sequence (P11413 whole entry): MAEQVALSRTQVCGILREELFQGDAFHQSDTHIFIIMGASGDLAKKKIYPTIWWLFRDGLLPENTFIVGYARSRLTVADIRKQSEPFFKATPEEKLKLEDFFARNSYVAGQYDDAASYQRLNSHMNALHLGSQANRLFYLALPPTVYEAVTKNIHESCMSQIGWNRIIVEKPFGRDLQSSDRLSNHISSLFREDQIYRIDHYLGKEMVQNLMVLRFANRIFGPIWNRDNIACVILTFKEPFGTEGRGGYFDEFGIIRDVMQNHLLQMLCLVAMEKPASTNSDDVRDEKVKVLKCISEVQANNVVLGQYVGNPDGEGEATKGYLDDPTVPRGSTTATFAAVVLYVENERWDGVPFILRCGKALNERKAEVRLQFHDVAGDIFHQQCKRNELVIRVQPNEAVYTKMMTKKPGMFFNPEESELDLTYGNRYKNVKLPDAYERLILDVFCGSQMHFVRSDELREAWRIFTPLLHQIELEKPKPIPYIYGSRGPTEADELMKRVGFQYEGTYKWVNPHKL

[11] = target: Dual specificity tyrosine-phosphorylation-regulated kinase 1A (Rattus norvegicus, UniProt Q63470); assay type: biochemical, Homo sapiens
[12] = target: T4, Short transient receptor potential channel 4 (Mus musculus, UniProt Q9QUQ5); test: mouse TRPC4 channel inhibitors, dose response, cell-based, HEK293 TRPC4/mu-opioid, Fluo-4 calcium (AID 434942); assay type: functional;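 note: potency of inhibitors blocking the TRPC4 calcium response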
T4 sequence (Q9QUQ5 whole entry): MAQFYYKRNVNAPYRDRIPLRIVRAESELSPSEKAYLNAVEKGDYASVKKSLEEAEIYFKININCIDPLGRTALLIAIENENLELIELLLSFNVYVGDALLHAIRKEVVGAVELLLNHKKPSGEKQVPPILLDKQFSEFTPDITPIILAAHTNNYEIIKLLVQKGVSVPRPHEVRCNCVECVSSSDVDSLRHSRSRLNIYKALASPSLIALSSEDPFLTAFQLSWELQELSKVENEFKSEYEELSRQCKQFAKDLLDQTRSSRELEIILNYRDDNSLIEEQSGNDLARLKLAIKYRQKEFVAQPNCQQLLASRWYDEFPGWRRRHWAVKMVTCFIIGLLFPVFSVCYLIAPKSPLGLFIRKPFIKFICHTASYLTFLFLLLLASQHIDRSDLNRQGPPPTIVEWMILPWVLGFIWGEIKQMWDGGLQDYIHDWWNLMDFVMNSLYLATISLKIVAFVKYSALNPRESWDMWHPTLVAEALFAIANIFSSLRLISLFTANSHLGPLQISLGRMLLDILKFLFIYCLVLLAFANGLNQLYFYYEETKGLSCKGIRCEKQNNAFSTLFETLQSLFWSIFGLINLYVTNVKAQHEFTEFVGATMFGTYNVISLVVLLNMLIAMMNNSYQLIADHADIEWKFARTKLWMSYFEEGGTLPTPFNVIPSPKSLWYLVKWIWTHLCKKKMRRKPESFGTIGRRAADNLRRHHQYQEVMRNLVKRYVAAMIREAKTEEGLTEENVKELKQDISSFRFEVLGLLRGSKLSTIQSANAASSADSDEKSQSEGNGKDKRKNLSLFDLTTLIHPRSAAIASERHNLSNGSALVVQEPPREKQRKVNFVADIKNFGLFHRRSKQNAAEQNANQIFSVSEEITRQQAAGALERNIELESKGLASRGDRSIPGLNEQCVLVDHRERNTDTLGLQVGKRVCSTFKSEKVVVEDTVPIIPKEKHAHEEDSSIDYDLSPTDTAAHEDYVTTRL

[13] = NIH-3T3 fibroblast cytotoxicity, dose response, cytotoxicity control, cell-based, fluorescence, Alamar Blue, secondary assay (AID 2327); assay type: functional;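 note: NIH-3T3 mouse fibroblasts cultured with fluconazole at 8 µg/mL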
[14] = target: T5, Ubiquitin-conjugating enzyme E2 N (Homo sapiens, UniProt P61088); assay type: functional;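 note: Dose-response confirmation in a TR-FRET assay detecting UBC13-driven polyubiquitin chain formation, inhibition measured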
T5 sequence (P61088 whole entry): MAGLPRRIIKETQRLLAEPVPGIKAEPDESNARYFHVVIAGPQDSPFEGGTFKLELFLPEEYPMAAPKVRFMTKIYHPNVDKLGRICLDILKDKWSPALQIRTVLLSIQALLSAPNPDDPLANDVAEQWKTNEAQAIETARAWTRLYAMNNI

[15] = inhibitors of HIV Env-driven cell fusion, dose response, cherry-pick (AID 652057); assay type: functional, cell-based
[16] = Luminescence Cell-Based Dose Retest to Confirm Inhibitors of Cancer Stem Cells. [Related pubchem assays (depositor defined):AID2717, AID2721]; assay type: functional; conditions: Homo sapiens
[17] = HEp-2 cell cytotoxicity, dose response, cytotoxicity control for RSV inhibitor project, HTS (AID 2410); assay type: functional; conditions: human respiratory syncytial virus
[18] = C. albicans growth with fluconazole, confirmation, fluorescence, retest (AID 2467); assay type: functional, cell-based
[19] = target: T6, Low molecular weight phosphotyrosine protein phosphatase (Homo sapiens, UniProt P24666); assay type: functional; conditions: read-out: IC50_Mean;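 note: Dose-response confirmation assay measuring inhibition of LMPTP enzyme activity by fluorescence intensity read-out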
T6 sequence (P24666 whole entry): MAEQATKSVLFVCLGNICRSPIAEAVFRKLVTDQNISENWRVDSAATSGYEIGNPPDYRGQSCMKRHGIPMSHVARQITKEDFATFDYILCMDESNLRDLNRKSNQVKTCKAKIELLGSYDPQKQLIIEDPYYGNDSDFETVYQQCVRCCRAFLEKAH

T1 sequence (P49327 whole entry, the tested form may be a part): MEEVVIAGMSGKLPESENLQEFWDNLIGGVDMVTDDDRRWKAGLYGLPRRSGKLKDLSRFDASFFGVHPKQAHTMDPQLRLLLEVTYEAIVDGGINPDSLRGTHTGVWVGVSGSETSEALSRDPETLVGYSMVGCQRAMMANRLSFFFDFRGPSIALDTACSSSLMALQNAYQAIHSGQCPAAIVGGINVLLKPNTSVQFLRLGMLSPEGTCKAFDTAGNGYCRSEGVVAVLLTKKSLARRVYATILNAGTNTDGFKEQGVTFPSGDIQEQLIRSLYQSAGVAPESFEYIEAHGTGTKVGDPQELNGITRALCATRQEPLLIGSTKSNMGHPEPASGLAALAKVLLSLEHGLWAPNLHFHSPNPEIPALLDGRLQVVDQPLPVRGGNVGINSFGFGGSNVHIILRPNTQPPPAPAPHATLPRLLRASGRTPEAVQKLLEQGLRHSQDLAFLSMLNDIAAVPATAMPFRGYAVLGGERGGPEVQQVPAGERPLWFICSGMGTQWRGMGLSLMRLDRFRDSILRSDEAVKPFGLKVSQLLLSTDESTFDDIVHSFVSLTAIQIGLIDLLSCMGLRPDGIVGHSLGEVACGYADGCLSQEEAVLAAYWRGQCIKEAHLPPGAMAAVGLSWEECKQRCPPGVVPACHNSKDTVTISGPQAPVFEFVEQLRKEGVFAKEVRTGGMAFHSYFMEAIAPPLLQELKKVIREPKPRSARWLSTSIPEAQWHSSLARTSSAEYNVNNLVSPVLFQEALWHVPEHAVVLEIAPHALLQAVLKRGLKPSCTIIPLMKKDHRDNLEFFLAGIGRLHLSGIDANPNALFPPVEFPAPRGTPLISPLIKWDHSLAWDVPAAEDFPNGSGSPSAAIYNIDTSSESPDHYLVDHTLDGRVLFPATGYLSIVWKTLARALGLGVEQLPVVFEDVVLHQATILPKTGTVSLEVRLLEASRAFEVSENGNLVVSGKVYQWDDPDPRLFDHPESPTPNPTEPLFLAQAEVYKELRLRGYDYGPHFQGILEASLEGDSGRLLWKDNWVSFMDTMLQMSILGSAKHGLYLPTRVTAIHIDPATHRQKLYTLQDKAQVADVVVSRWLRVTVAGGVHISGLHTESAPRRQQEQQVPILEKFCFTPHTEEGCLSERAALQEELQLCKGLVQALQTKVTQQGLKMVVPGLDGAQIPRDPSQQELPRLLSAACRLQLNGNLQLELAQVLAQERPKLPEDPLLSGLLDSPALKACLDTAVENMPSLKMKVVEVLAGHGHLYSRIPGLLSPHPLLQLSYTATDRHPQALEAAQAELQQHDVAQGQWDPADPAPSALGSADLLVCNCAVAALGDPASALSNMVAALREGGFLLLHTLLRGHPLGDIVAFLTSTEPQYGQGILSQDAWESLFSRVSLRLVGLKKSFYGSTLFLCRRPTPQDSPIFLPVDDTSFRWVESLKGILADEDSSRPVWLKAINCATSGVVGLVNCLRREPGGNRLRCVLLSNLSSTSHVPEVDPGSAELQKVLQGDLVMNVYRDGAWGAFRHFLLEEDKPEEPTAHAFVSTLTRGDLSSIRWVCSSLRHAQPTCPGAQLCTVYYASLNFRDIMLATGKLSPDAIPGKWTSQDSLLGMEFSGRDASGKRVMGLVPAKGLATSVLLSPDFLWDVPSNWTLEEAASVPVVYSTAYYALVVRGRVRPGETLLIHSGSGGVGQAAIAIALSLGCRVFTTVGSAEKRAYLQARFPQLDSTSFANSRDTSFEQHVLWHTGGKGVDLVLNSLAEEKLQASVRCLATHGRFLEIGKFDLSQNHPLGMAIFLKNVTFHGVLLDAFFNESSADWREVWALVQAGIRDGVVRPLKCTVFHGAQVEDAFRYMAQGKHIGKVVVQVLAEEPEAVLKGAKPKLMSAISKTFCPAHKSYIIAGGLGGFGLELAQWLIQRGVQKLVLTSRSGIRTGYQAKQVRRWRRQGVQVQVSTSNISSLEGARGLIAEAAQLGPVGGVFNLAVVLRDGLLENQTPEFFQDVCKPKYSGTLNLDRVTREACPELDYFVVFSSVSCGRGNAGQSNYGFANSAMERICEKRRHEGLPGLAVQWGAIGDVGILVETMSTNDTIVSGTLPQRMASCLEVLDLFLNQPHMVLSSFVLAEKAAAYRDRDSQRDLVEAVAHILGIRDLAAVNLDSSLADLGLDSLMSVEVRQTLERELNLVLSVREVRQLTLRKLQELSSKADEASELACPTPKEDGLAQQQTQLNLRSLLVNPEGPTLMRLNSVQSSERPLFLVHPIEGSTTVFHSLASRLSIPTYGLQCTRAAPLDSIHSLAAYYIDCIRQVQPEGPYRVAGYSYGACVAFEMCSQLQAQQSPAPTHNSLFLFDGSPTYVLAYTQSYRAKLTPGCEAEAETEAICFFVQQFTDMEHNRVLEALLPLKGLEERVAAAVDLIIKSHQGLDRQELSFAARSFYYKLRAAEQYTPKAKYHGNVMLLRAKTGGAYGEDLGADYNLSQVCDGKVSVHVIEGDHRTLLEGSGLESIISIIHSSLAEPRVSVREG

CC1CCN(C(=O)c2ccc3c(Cl)c4c(nc3c2)CCCC4)CC1
IC50 (Fatty acid synthase [1]): 6.9 µM (active) | IC50 (Fatty acid synthase [2]): 5.24 µM (active) | IC50 [3]: 50 µM (inactive)

CCc1ccc(C(=O)CN2C(=O)NC(C)(c3ccc(C)cc3)C2=O)cc1 (stereo not drawn)
AC50 [4]: 69 µM (active)

C[C@H](CO)N1C[C@H](C)[C@@H](CN(C)Cc2ccc(C(F)(F)F)cc2)Oc2c(NC(=O)c3nc4ccccc4s3)cccc2C1=O
AC50 [5]: 1.05 µM (active)

Cc1ccc(NC(=O)CSc2nc3nc(O)cc(O)c3s2)c(Br)c1
IC50 [6]: 35.9 µM (inactive) | IC50 (Steroidogenic factor 1): 9.35 µM (active) | IC50 [7]: 35.9 µM (inactive)

O=C(CCc1ccc(O)c(O)c1)N/N=C/c1cc2c(cc1[N+](=O)[O-])OCO2
IC50 (Large T antigen): 13.8 µM (active) | EC50 [8]: 6.35 µM (active) | EC50 [9]: 24 µM (active) | IC50 [10]: > 80 µM (inactive)

O=C(Nc1cccc(-c2nn[nH]n2)c1)c1ccc(Br)s1
AC50 [11]: 0.875 µM (active)

CCc1ccccc1N=C(S)N(CCCN(C)C)Cc1cc2cc3c(cc2nc1O)OCO3
EC50 [12]: 1.06 µM (active)

O=C(Cc1ccccc1)NCC(=O)OCC(=O)c1ccc([N+](=O)[O-])cc1
IC50 [10]: > 80 µM (inactive)

C=CCn1c(O)c(N=NC(=S)Nc2ccc(OC)cc2)c2ccccc21
EC50 [13]: > 150 µM (inactive)

CC(=O)Nc1ccc(NC(=O)CSc2nnnn2C2CCCCC2)cc1
IC50 [6]: 11.8 µM (inactive) | IC50 (Steroidogenic factor 1): 7.58 µM (active) | IC50 [7]: 35.9 µM (inactive)

COc1ccc(CCn2c(C)cc(C(=O)COC(=O)c3ccc(O)cc3O)c2C)cc1
IC50 [6]: 35.9 µM (inactive) | IC50 (Steroidogenic factor 1): 5.82 µM (active) | IC50 [7]: 35.9 µM (inactive)

CCn1c(=S)sc2c(=O)n(CC(=O)NC(C)CCc3ccccc3)c(C)nc21 (stereo not drawn)
IC50 (Fatty acid synthase [1]): 16.8 µM (active) | IC50 (Fatty acid synthase [2]): 9.52 µM (active)

C[C@@H]1CCCCO[C@@H](CN(C)Cc2ccc(C(F)(F)F)cc2)[C@@H](C)CN([C@H](C)CO)C(=O)c2cc(NS(=O)(=O)c3ccc(Cl)cc3)ccc2O1
AC50 [5]: 3.01 µM (active)

CCOC(=O)CSc1nc2ccccc2c(=O)n1CC1CCCC1
EC50 [12]: 6.68 µM (active)

NNc1nc2c(Cl)ccc(Cl)c2s1
AC50 [11]: 0.905 µM (active)

CCOC(=O)N1CCN(C(=O)C(=O)Nc2sc3c(c2C(N)=O)CC(C)(C)OC3)CC1
IC50 [14]: > 20 µM (inactive)

C[C@@H]1CN([C@@H](C)CO)S(=O)(=O)c2ccc(C3=CCCC3)cc2O[C@@H]1CN(C)C(=O)C1CCOCC1
AC50 [15]: 59 µM (active) | AC50 [4]: 10.2 µM (active)

CC(C)(C)c1ccc(/C=C2\CCn3c2nc2cc(C(=O)O)ccc2c3=O)cc1
IC50 (Fatty acid synthase [1]): 3 µM (active) | IC50 (Fatty acid synthase [2]): 3.26 µM (active)

CC(=O)O[C@H]1[C@@H](O)[C@H](O)[C@H](Oc2c(O)c(C)c3c4c2[C@@H](C)CC[C@@H]4[C@@H](C)C[C@H]3C=C(C)C)O[C@H]1C
IC50 [14]: > 20 µM (inactive) | AC50 [16]: 3.19 µM (active)

C[C@H]1CN([C@@H](C)CO)C(=O)c2cccc(NS(=O)(=O)c3ccccc3)c2O[C@H]1CN(C)Cc1ccc(C(=O)Nc2ccccc2N)cc1
AC50 [5]: 3.48 µM (active)

O=C(CCn1c(=O)c2ccccc2n(Cc2cccc([N+](=O)[O-])c2)c1=O)N1CCc2ccccc2C1
CC50 [17]: > 50 µM (active) | IC50 (Fatty acid synthase [1]): 1.17 µM (active) | IC50 (Fatty acid synthase [2]): 1.26 µM (active)

CC(=O)Nc1cc(-c2ccc(S(C)(=O)=O)cc2)cn2c(-c3ccc(F)cc3)cnc12
IC50 [6]: 8.24 µM (active) | IC50 (Steroidogenic factor 1): 3.11 µM (active) | IC50 [7]: 23.7 µM (inactive)

C[C@@H]1CN([C@H](C)CO)C(=O)Cc2cc(NC(=O)Nc3ccc(C(F)(F)F)cc3)ccc2O[C@H]1CN(C)Cc1ccccc1
AC50 [5]: 4.06 µM (active)

COc1ccc(CCNC(=O)COC(=O)c2cc(Cl)nc(Cl)c2)cc1
IC50 [6]: 8.32 µM (active) | IC50 (Steroidogenic factor 1): 3.23 µM (active) | IC50 [7]: 35.9 µM (inactive)

Nc1nc(CN2CCN(c3ccccn3)CC2)nc(Nc2ccc(F)cc2)n1
EC50 [13]: > 150 µM (inconclusive) | EC50 [18]: > 38 µM (not active)

Cc1ccc(S(=O)(=O)Nc2cccc3c2O[C@H](CN(C)Cc2ccc(C(=O)Nc4ccccc4N)cc2)[C@H](C)CN([C@H](C)CO)C3=O)cc1
AC50 [5]: 2.26 µM (active)

CC(C)(C)NCc1ccccc1OCc1cccs1
EC50 [12]: 3.76 µM (active)

CCCN1CCc2cc(O)cc3c2[C@H]1Cc1ccc(O)c(O)c1-3
IC50 (Large T antigen): 24 µM (active) | EC50 [8]: > 300 µM (inconclusive) | EC50 [9]: > 300 µM (inconclusive) | IC50 [10]: > 80 µM (inactive)

CC(C)(C)CC(=O)Nc1nnc(C(F)(F)F)s1
EC50 [13]: > 160 µM (inactive) | EC50 [18]: 0.13 µM (active)

O=C(Nc1cccc(-c2cn3ccccc3n2)c1)c1cc2ccccc2oc1=O
IC50 [19]: 7.49 µM (active)

Cc1ccn2cc(CCNC(=O)c3ccc(Br)o3)nc2c1
EC50 [12]: 7.5 µM (active)

CCOc1ccc(OCCN2C(=O)NC(Cc3c[nH]c4ccccc34)C2=O)cc1 (stereo not drawn)
IC50 [6]: 4.18 µM (active) | IC50 (Steroidogenic factor 1): 5.29 µM (active) | IC50 [7]: 35.9 µM (inactive)

CN(C)c1ccc(NC(=O)C2C3C=CC(C3)C2C(=O)O)cc1 (stereo not drawn)
EC50 [13]: > 160 µM (inactive) | EC50 [18]: > 38 µM (not active)

CCn1cc(C(=O)O)c(=O)c2cc(F)c(N3CCN(C(=S)NC(=O)c4ccc(F)cc4)CC3)cc21
IC50 [19]: 11.7 µM (active)
